Measured values as given in patent US20230414575A1, “MK2 ACTIVATING COMPOUNDS FOR USE IN TREATING VASCULAR LEAK AND ENDOTHELIAL BARRIER DISORDERS” (Akttyva Therapeutics, Inc., priority 2020, published 2023).
Where a name gives a salt, the structure may show the parent alone.

These molecules were tested against T1, MK2 (Homo sapiens, UniProt P49137) (assay: ELISA MK2 cell-based activity assay (phospho-HSP-27), Malme-3M cells). Conditions: Malme-3M cells, compound 20 μM, 30 minutes, 37° C.
T1 construct: endogenous in cells; host or cells: Malme-3M
T1 sequence (P49137 whole entry): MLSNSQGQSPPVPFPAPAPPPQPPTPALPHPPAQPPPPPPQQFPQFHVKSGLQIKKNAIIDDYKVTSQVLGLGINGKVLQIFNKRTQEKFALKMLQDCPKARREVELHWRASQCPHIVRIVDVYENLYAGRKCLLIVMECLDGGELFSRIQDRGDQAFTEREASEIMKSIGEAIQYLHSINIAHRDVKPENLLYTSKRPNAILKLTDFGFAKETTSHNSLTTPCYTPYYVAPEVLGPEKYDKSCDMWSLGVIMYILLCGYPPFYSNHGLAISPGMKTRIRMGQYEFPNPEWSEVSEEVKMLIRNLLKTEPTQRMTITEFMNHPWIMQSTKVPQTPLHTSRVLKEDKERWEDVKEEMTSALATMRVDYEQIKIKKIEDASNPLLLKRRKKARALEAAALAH
Protocol: (§1) The MK2 activator candidates, identified using the artificial intelligence (AI)-assisted docking approach, were tested in activity assays for lead selection against the MK2 target. MK2 activation was assessed using (a) a cell-based assay using rat microvascular endothelial cells (RMVEC) and (b) human cancer skin fibroblast cells (Malme-3M). In both assays, an Enzyme-linked ImmunoSorbent Assay (ELISA) technique was used to measure (HSP-27) phosphorylation (DYC2314-2, R&D Systems). Both cell lines were grown to confluency in a 96-well tissue culture plate and treated at 37° C. for 30 minutes with the test compounds at concentrations of 20 μM. The cells were subsequently lysed with a lysis solution containing 0.5% Triton X-100 and anti-proteolysis agents. The resulting lysates were then loaded onto ELISA plates coated with anti-rat phospho-HSP27. After incubation and washing, the plates were treated with an horseradish peroxidase (HRP)-conjugated anti-phospho-HSP27 secondary antibody and then measured for chemiluminescence. Higher activity compounds, acting on MK2, induced higher levels of HSP-27 phosphorylation, as measured by the ELISA.

Molecule	Ratio to Control
Cc1nc2ccc(CN(C)c3ccc(C(=O)N[C@@H](CCC(=O)O)C(=O)O)s3)cc2c(=O)[nH]1 [Compound 41, Raltitrexed]	1.7
OC[C@@H](O)CN1CCN(c2ccccc2)CC1 [Levodropropizine]	27.6
O=C(O)c1ccc2nc(-c3cc(Cl)cc(Cl)c3)oc2c1 [Compound 95, Tafamidis]	1.1
Cc1csc(-c2nnc(Nc3ccc(Oc4ncccc4-c4ccnc(N)n4)cc3)c3ccccc23)c1 [Compound 33, Amg- 900]	0.9
CC(=O)Nc1nc2c(Oc3cc(-c4ccc(C(F)(F)F)cc4)ncn3)cccc2s1 [Compound 83, Amg-517]	1.3
COc1ccc(-c2cc(C(F)F)nn2-c2ccc(S(N)(=O)=O)cc2)cc1F [Compound 113, Deracoxib]	1.2
Cc1cn(-c2cc(NC(=O)c3ccc(C)c(Nc4nccc(-c5cnccn5)n4)c3)cc(C(F)(F)F)c2)cn1 [Compound 52, Radotinib]	0.9
O=C1[C@H]2CCCC[C@H]2C(=O)N1CCCCN1CCN(c2nsc3ccccc23)CC1 [Compound 23, Perospirone]	32.0
Cc1cc(C(=O)Nc2cc(Nc3ccc4c(/C=C/c5ccccn5)n[nH]c4c3)ccc2F)n(C)n1 [Compound 74, Ag-13958]	0.7
CN(C)Cc1c(C(=O)NCCOc2ccc(C(=O)NO)cc2)oc2ccccc12 [Compound 54, Abexinostat]	37.2
Nc1ccccc1NC(=O)c1ccc(CNc2nccc(-c3cccnc3)n2)cc1 [Compound 38, Mocetinostat]	0.9
CC(C)Nc1cccnc1N1CCN(C(=O)c2cc3cc(NS(C)(=O)=O)ccc3[nH]2)CC1 [Compound 108, Delavirdine]	0.8
O=C1Cc2cc(CCN3CCN(c4nsc5ccccc45)CC3)c(Cl)cc2N1 [Compound 24, Ziprasidone]	1.6

Same assay, conditions: Malme-3M cells, compound 20 μM, 30 minutes, 37° C., phospho-HSP27 ELISA

Molecule	Pho-HSP27
Cc1nc2ccc(CN(C)c3ccc(C(=O)N[C@@H](CCC(=O)O)C(=O)O)s3)cc2c(=O)[nH]1 [Compound 41, Raltitrexed]	38.7 pg/mL
OC[C@@H](O)CN1CCN(c2ccccc2)CC1 [Levodropropizine]	621.3 pg/mL
O=C(O)c1ccc2nc(-c3cc(Cl)cc(Cl)c3)oc2c1 [Compound 95, Tafamidis]	24.1 pg/mL
Cc1csc(-c2nnc(Nc3ccc(Oc4ncccc4-c4ccnc(N)n4)cc3)c3ccccc23)c1 [Compound 33, Amg- 900]	21.2 pg/mL
CC(=O)Nc1nc2c(Oc3cc(-c4ccc(C(F)(F)F)cc4)ncn3)cccc2s1 [Compound 83, Amg-517]	29.9 pg/mL
COc1ccc(-c2cc(C(F)F)nn2-c2ccc(S(N)(=O)=O)cc2)cc1F [Compound 113, Deracoxib]	26.2 pg/mL
Cc1cn(-c2cc(NC(=O)c3ccc(C)c(Nc4nccc(-c5cnccn5)n4)c3)cc(C(F)(F)F)c2)cn1 [Compound 52, Radotinib]	20.8 pg/mL
O=C1[C@H]2CCCC[C@H]2C(=O)N1CCCCN1CCN(c2nsc3ccccc23)CC1 [Compound 23, Perospirone]	720.7 pg/mL
Cc1cc(C(=O)Nc2cc(Nc3ccc4c(/C=C/c5ccccn5)n[nH]c4c3)ccc2F)n(C)n1 [Compound 74, Ag-13958]	15.2 pg/mL
CN(C)Cc1c(C(=O)NCCOc2ccc(C(=O)NO)cc2)oc2ccccc12 [Compound 54, Abexinostat]	836.0 pg/mL
Nc1ccccc1NC(=O)c1ccc(CNc2nccc(-c3cccnc3)n2)cc1 [Compound 38, Mocetinostat]	21.2 pg/mL
CC(C)Nc1cccnc1N1CCN(C(=O)c2cc3cc(NS(C)(=O)=O)ccc3[nH]2)CC1 [Compound 108, Delavirdine]	17.3 pg/mL
O=C1Cc2cc(CCN3CCN(c4nsc5ccccc45)CC3)c(Cl)cc2N1 [Compound 24, Ziprasidone]	35.4 pg/mL

Same assay, conditions: overall statement on compounds tested at 20 μM (Malme-3M and RMVEC cells)

Molecule	response in phospho-HSP27 ELISA, overall ranking
OC[C@@H](O)CN1CCN(c2ccccc2)CC1 [Levodropropizine]	most robust response
O=C1[C@H]2CCCC[C@H]2C(=O)N1CCCCN1CCN(c2nsc3ccccc23)CC1 [Compound 23, Perospirone]	most robust response
CN(C)Cc1c(C(=O)NCCOc2ccc(C(=O)NO)cc2)oc2ccccc12 [Compound 54, Abexinostat]	most robust response

The molecules below were run against T2, MK2 (Rattus norvegicus, UniProt Q80ZF4) (assay: ELISA MK2 cell-based activity assay (phospho-HSP-27), RMVEC cells). Conditions: compound 20 μM, 30 minutes, 37° C.
T2 construct: endogenous in cells; host or cells: rat microvascular endothelial cells (RMVEC)
T2 sequence (Q80ZF4 1-386): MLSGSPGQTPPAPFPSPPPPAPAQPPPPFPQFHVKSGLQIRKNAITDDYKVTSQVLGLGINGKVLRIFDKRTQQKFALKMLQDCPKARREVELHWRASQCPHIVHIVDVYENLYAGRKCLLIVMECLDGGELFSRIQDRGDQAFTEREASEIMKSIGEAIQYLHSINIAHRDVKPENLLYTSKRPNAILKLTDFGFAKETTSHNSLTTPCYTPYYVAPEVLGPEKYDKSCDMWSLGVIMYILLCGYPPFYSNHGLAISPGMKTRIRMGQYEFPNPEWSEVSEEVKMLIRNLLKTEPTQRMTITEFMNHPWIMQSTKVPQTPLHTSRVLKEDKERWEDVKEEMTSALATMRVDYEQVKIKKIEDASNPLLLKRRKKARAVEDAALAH
Protocol: as §1

Molecule	Ratio Compound/control
Cc1nc2ccc(CN(C)c3ccc(C(=O)N[C@@H](CCC(=O)O)C(=O)O)s3)cc2c(=O)[nH]1 [Compound 41, Raltitrexed]	1.1
OC[C@@H](O)CN1CCN(c2ccccc2)CC1 [Levodropropizine]	2.3
O=C1Cc2cc(CCN3CCN(c4nsc5ccccc45)CC3)c(Cl)cc2N1 [Ziprasidone HCl]	1.5
OCC(O)CN1CCN(c2ccccc2)CC1 (centres unmarked) [Dropropizine]	0.1
O=C(O)c1ccc2nc(-c3cc(Cl)cc(Cl)c3)oc2c1 [Compound 95, Tafamidis]	0.8
MK2-AP (batch#2): presumably the positively charged MK2-activating peptide YARAAARQARAHPRNPARRTPGTRRGAPAA (SEQ ID NO: 7) (MK2 peptide fragment)	2.7
CCc1cc(/C(C)=N/OCc2ccc(C3CCCCC3)c(C(F)(F)F)c2)ccc1CN1CC(C(=O)O)C1 [Compound 76, Siponimod]	1.0
Cc1cc(N2CCN([C@@H]3CN[C@H](C(=O)N4CCSC4)C3)CC2)n(-c2ccccc2)n1 [Teneligliptin hydrobromide]	0.8
Cc1csc(-c2nnc(Nc3ccc(Oc4ncccc4-c4ccnc(N)n4)cc3)c3ccccc23)c1 [Compound 33, Amg- 900]	1.6
Cn1c(Nc2ccc(C(F)(F)F)cc2)nc2cc(Oc3ccnc(-c4ncc(C(F)(F)F)[nH]4)c3)ccc21 [Compound 47, Chir-265]	0.9
CCN1CCN(Cc2ccc(NC(=O)Nc3ccc(Oc4cc(NC)ncn4)cc3)cc2C(F)(F)F)CC1 [Compound 55, Ast-487]	1.3
CC(=O)Nc1nc2c(Oc3cc(-c4ccc(C(F)(F)F)cc4)ncn3)cccc2s1 [Compound 83, Amg-517]	2.1
COc1cc2ncnc(Oc3cccc(NC(=O)Nc4cc(C(C)(C)C(F)(F)F)on4)c3)c2cc1OC [Compound 27, Cep-32496]	0.9
COc1ccc(-c2cc(C(F)F)nn2-c2ccc(S(N)(=O)=O)cc2)cc1F [Compound 113, Deracoxib]	1.2
Cc1cn(-c2cc(NC(=O)c3ccc(C)c(Nc4nccc(-c5cnccn5)n4)c3)cc(C(F)(F)F)c2)cn1 [Compound 52, Radotinib]	1.0
Cc1cc(C(=O)Nc2cc(Nc3ccc4c(/C=C/c5ccccn5)n[nH]c4c3)ccc2F)n(C)n1 [Compound 74, Ag-13958]	1.2
CN(C)Cc1c(C(=O)NCCOc2ccc(C(=O)NO)cc2)oc2ccccc12 [Compound 54, Abexinostat]	2.3
Nc1ccccc1NC(=O)c1ccc(CNc2nccc(-c3cccnc3)n2)cc1 [Compound 38, Mocetinostat]	1.0

Same assay, conditions: compound 20 μM, 30 minutes, 37° C., phospho-HSP27 ELISA

Molecule	Average Response HSP27
Cc1nc2ccc(CN(C)c3ccc(C(=O)N[C@@H](CCC(=O)O)C(=O)O)s3)cc2c(=O)[nH]1 [Compound 41, Raltitrexed]	25.4 pg/mL
OC[C@@H](O)CN1CCN(c2ccccc2)CC1 [Levodropropizine]	47.1 pg/mL
O=C1Cc2cc(CCN3CCN(c4nsc5ccccc45)CC3)c(Cl)cc2N1 [Ziprasidone HCl]	32.3 pg/mL
OCC(O)CN1CCN(c2ccccc2)CC1 (centres unmarked) [Dropropizine]	1.2 pg/mL
O=C(O)c1ccc2nc(-c3cc(Cl)cc(Cl)c3)oc2c1 [Compound 95, Tafamidis]	18.6 pg/mL
MK2-AP (batch#2): presumably the positively charged MK2-activating peptide YARAAARQARAHPRNPARRTPGTRRGAPAA (SEQ ID NO: 7) (MK2 peptide fragment)	11.7 pg/mL
CCc1cc(/C(C)=N/OCc2ccc(C3CCCCC3)c(C(F)(F)F)c2)ccc1CN1CC(C(=O)O)C1 [Compound 76, Siponimod]	6.6 pg/mL
Cc1cc(N2CCN([C@@H]3CN[C@H](C(=O)N4CCSC4)C3)CC2)n(-c2ccccc2)n1 [Teneligliptin hydrobromide]	4.0 pg/mL
Cc1csc(-c2nnc(Nc3ccc(Oc4ncccc4-c4ccnc(N)n4)cc3)c3ccccc23)c1 [Compound 33, Amg- 900]	20.4 pg/mL
Cn1c(Nc2ccc(C(F)(F)F)cc2)nc2cc(Oc3ccnc(-c4ncc(C(F)(F)F)[nH]4)c3)ccc21 [Compound 47, Chir-265]	8.5 pg/mL
CCN1CCN(Cc2ccc(NC(=O)Nc3ccc(Oc4cc(NC)ncn4)cc3)cc2C(F)(F)F)CC1 [Compound 55, Ast-487]	9.0 pg/mL
CC(=O)Nc1nc2c(Oc3cc(-c4ccc(C(F)(F)F)cc4)ncn3)cccc2s1 [Compound 83, Amg-517]	33.7 pg/mL
COc1cc2ncnc(Oc3cccc(NC(=O)Nc4cc(C(C)(C)C(F)(F)F)on4)c3)c2cc1OC [Compound 27, Cep-32496]	6.2 pg/mL
COc1ccc(-c2cc(C(F)F)nn2-c2ccc(S(N)(=O)=O)cc2)cc1F [Compound 113, Deracoxib]	26.5 pg/mL
Cc1cn(-c2cc(NC(=O)c3ccc(C)c(Nc4nccc(-c5cnccn5)n4)c3)cc(C(F)(F)F)c2)cn1 [Compound 52, Radotinib]	21.7 pg/mL
Cc1cc(C(=O)Nc2cc(Nc3ccc4c(/C=C/c5ccccn5)n[nH]c4c3)ccc2F)n(C)n1 [Compound 74, Ag-13958]	20.4 pg/mL
CN(C)Cc1c(C(=O)NCCOc2ccc(C(=O)NO)cc2)oc2ccccc12 [Compound 54, Abexinostat]	48.4 pg/mL
Nc1ccccc1NC(=O)c1ccc(CNc2nccc(-c3cccnc3)n2)cc1 [Compound 38, Mocetinostat]	17.8 pg/mL
